{"source": "paper PMC7746945", "about": "(Neuro-Oncology, 2020)", "key": {"recurrent GBM [1]": {"tested_on": "recurrent GBM", "assay": "DCE-MRI of tumor perfusion and permeability before and after olaparib", "type": "in vivo, human", "conditions": "stage 1 and dose expansion patients, cycle 0", "description": "(§1) Secondary endpoints included PFS at 6 months (PFS-6, assessed radiologically using the RANO criteria) and radiological measurement of BBB permeability and perfusion by diffusion weighted and dynamic contrast-enhanced (DCE) MRI. […] Further details of the imaging protocol are provided in the Supplementary Material. Confidence intervals for PFS data were calculated using the exact binomial distribution.\nThe imaging protocol included four pre-contrast spoiled fast field echo (T1-FFE spoiled gradient echo) sequences with different flip angles (2o, 8o, 15o, 16-20o) for calculation of baseline T1 maps allowing estimation of contrast concentration from observed signal changes and a dynamic, contrast enhanced acquisition series with identical acquisition parameters as the 4th variable flip angle baseline T1 measurement (16-20o), consisting of 100-120 volumes with temporal spacing of 5.1-5.5 seconds (s). Gadolinium-based contrast agent (Gd-DTPA-BMA; Omniscan, GE Healthcare, Oslo, Norway) was injected by pressure injector as a 3 ml bolus at 4 ml/s (dose 0.1 mmol/kg) after acquisition of the seventh image volume, followed by saline flush. Data were analysed using the hybrid model [Li, Jackson Mag Res Med 2003] and in-house software. ROI placement was manual and enhancing pixels were identified through significant change in signal intensity following administration of contrast. […]"}, "[2]": {"assay": "Clinical PK: olaparib in tumor core, tumor margin and plasma of recurrent GBM patients (LC-MS)", "type": "in vivo, human", "conditions": "for Kp: human, tumor and plasma, oral, ratio between tumor and plasma olaparib concentrations, surgical patients", "description": "At neurosurgery, contrast-enhancing tumor regions identified on preoperative MRI scans were targeted for resection. Specimens were assessed by intraoperative cytology; 3 regions of viable, solid tumor from each patient were snap frozen for PK analysis by liquid chromatography mass spectrometry (LC-MS). In the expansion cohort, 5-ALA guided neurosurgery enabled discrimination of fluorescent “core” tissue from nonfluorescent “margin” tissue. Up to 3 tumor margin biopsies were taken from each patient, from each of which half was frozen for PK analysis and half fixed for histology.\n100 mg q.d., n = 10; 150 mg q.d., n = 35; 200 mg b.i.d., n = 3. […] All measurements performed by LC-MS."}, "MDR1": {"target": "T1, MDR1 (Homo sapiens, UniProt P08183)", "T1 construct": "host or cells: MDCKII (Madin-Darby canine kidney type II) cells stably expressing human MDR1 cDNA", "T1 sequence (P08183 whole entry)": "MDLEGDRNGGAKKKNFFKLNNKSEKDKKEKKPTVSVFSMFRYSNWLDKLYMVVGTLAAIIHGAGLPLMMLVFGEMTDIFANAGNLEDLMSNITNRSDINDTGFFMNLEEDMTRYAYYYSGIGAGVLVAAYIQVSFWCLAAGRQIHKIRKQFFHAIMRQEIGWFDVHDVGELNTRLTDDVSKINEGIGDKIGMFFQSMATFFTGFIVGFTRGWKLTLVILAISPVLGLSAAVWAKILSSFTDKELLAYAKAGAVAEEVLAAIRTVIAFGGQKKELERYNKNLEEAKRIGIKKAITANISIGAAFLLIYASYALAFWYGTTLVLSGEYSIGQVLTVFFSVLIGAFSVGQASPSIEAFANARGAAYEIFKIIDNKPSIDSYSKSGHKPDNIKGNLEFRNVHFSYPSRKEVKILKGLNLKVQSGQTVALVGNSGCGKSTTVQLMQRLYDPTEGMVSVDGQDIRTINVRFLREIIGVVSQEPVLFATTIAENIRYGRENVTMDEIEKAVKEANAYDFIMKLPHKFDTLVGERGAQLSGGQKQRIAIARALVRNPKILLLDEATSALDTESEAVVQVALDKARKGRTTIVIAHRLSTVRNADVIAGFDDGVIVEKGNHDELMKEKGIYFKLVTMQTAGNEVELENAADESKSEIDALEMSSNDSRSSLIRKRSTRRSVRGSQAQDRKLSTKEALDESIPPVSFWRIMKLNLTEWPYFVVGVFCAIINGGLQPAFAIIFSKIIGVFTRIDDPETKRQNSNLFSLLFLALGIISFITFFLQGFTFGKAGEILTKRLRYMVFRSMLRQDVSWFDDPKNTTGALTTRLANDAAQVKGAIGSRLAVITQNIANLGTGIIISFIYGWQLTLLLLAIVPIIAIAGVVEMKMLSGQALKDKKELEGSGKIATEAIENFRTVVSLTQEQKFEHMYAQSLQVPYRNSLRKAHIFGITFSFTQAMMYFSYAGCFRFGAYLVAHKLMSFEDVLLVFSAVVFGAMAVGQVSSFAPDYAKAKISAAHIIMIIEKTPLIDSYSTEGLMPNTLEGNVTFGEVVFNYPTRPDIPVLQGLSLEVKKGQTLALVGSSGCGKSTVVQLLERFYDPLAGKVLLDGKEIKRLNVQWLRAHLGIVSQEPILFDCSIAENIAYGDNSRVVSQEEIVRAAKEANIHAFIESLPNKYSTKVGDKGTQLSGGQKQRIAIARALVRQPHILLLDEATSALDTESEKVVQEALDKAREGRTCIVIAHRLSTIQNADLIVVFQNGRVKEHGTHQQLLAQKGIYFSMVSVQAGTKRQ", "assay": "Directional transport of [14C]-olaparib across MDCKII-MDR1 monolayers, with or without ketoconazole", "type": "in vitro ADME"}, "recurrent GBM [3]": {"tested_on": "recurrent GBM", "assay": "Efficacy: progression-free survival at 6 months (RANO)", "type": "in vivo, human", "conditions": "olaparib with TMZ", "description": "as §1"}, "[4]": {"assay": "Olaparib PK in mice bearing intracranial G7 GBM xenografts (mass spectrometry)", "type": "in vivo, CD1 nude mice", "conditions": "50 mg/kg", "description": "(§2) Canine kidney epithelial cells, stably expressing human MDR1 cDNA (Madin-Darby canine kidney type II [MDCKII]–MDR1 cells) or empty vector (MDCKII control), were used to model the intact BBB and determine permeability coefficients of (^14C)-olaparib in the presence of ketoconazole (25 μM). Whole body autoradiography was performed on male pigmented rats after single oral administration of [^14C]-olaparib (15 mg/kg; 5 MBq/kg). For autoradiography studies, animal care and experiments were carried out in accordance with AstraZeneca guidelines, which comply with UK standards. […] Xenograft experiments were performed under the relevant UK Home Office Project Licence and carried out with ethical approval from the University of Glasgow under the Animal (Scientific Procedures) Act 1986 and the EU directive 2010. Mice were maintained in individually ventilated cages with environmental enrichment and following the guidelines of ARRIVE (Animal Research: Reporting of In Vivo Experiments). […] Ratiometric t-test analysis determined SER confidence intervals and P-values. Further details are available in the Supplementary Material.\n(§3) Apparent permeability coefficients were calculated for apical to basolateral (Papp a‒b) and basolateral to apical transport (Papp b‒a) as described in Methods. […] (B) Single oral doses of 15 mg/kg [14C]-olaparib were administered to male pigmented rats that were subsequently culled, sectioned, and subjected to whole body autoradiography at the timepoints shown. Radioactivity was excluded from the central nervous system in all animals at all timepoints. […] Blood, tumor, and contralateral (non tumor bearing) brain were harvested and snap frozen at the time points shown. […] Note different y-axis scales."}, "[5]": {"assay": "Directional transport of [14C]-olaparib across MDCKII control (empty vector) monolayers", "type": "in vitro ADME, canine", "conditions": "dog, MDCK", "description": "as §2, §3\nMonolayers were cultured in Dulbeco’s Modified Eagle Medium (DMEM) supplemented with glucose (4.5 g/L), 10% fetal calf serum, penicillin and streptomycin on semi-permeable filter inserts (Transwell plates 3401, Costar, Cambridge, MA) for three days. Under these conditions MDR1 localises to the apical plasma membrane. Monolayer integrity was assessed by transepithelial electrical resistance (TEER) measurement then inserts washed with Hank’s Balanced Salt Solution (HBSS) and transferred to 12-well plates containing HBSS (to measure apical to basal transport, a – b) or [14C]-olaparib diluted in HBSS (dose solution, to measure basal to apical transport, b – a). After addition of dose solution (a – b) or HBSS (b – a) to the apical chamber, samples of apical and basolateral compartments were collected immediately after dosing and after 120 minutes incubation. Three concentrations of 14C-olaparib were tested (0.1, 1 and 10 µM), each in three replicates. Radioactivity was determined by liquid scintillation counting. […] Transport of olaparib or reference substrate cimetidine was determined in MDCKII-BCRP cells. Apparent permeability coefficients (Papp) were calculated:\nEfflux ratio = Papp b - a /a - b = Papp b - a / Papp a - b (mean)"}, "[6]": {"conditions": "200 mg b.i.d. for 7 doses before resection, 9 samples from 3 patients"}, "[7]": {"conditions": "21 tumor margin samples, 9 dose expansion patients"}}, "note": "“And” between values parts separate entries of the source, which are not always exact repeats. Identical values can stand only once. “Also recorded” adds a separate entry of the source. Like-named read-outs stand apart in the source and are kept apart here.", "data": [{"smiles": "O=C(c1cc(Cc2n[nH]c(=O)c3ccccc23)ccc1F)N1CCN(C(=O)C2CC2)CC1", "note": "[olaparib, 4-[3-(4-cyclopropanecarbonylpiperazine-1-carbonyl)-4-fluorobenzyl]-2H-phthalazin-1-one]", "values": [{"measurement": "changes in perfusion or permeability parameters between baseline and post-olaparib scans", "setting": "recurrent GBM [1]", "value": "no significant changes"}, {"measurement": "mean olaparib concentration in stage 1 tumor samples", "setting": "[2]; [6]", "value": 471, "unit": "nM"}, {"measurement": "olaparib concentration in stage 1 tumor samples, range", "setting": "[2]; [6]", "value": "164 to 992", "unit": "nM"}, {"measurement": "tumor margin specimens with olaparib detected", "setting": "[2]; 9 patients", "value": "21/21"}, {"measurement": "tumor margin olaparib concentration, median", "setting": "[2]; [7]", "value": 512.3, "unit": "nM"}, {"measurement": "tumor margin olaparib concentration, range", "setting": "[2]; [7]", "value": "97 to 1237", "unit": "nM"}, {"measurement": "tumor core specimens with olaparib detected", "setting": "[2]; 27 patients", "value": "71/71"}, {"measurement": "tumor core olaparib concentration, range", "setting": "[2]; 71 tumor core samples, 27 surgical patients", "value": "97 to 1374", "unit": "nM"}, {"measurement": "tumor core olaparib concentration, median", "setting": "[2]; 71 tumor core samples, 27 surgical patients, 3–5 hours after final preoperative dose", "value": 496, "unit": "nM"}, {"measurement": "Kp", "setting": "[2]; mean", "value": 0.25}, {"measurement": "Kp", "setting": "[2]; range", "value": "0.01 to 0.9"}, {"measurement": "tumor olaparib concentrations, range in all specimens", "setting": "[2]; tumor core and margin", "value": "100 to 1000", "unit": "nM"}, {"measurement": "Papp A→B at 120 min, 3 µM", "setting": "MDR1; human, MDCK-MDR1", "value": 0.53, "unit": "×10⁻⁶ cm/s"}, {"measurement": "Papp B→A at 120 min, 3 µM", "setting": "MDR1; human, MDCK-MDR1, with ketoconazole 25 µM, read-out: Papp b-a + ketoconazole (SD)", "value": 16.3, "unit": "×10⁻⁶ cm/s"}, {"measurement": "Papp B→A at 120 min, 3 µM", "setting": "MDR1; human, MDCK-MDR1, read-out: Papp b-a (SD)", "value": 42.7, "unit": "×10⁻⁶ cm/s"}, {"measurement": "MDR1 substrate status", "setting": "MDR1; olaparib 1–10 µM", "value": "substrate for multidrug resistance protein 1; also recorded: substrate for MDR1"}, {"measurement": "reduction of apparent permeability of MDCKII-MDR1 cells to olaparib by ketoconazole", "setting": "MDR1; olaparib 1–10 µM, ketoconazole 25 µM", "value": "40–62%"}, {"measurement": "patients progression free at 6 months (PFS-6)", "setting": "recurrent GBM [3]; evaluable patients", "value": "36% and 39%"}, {"measurement": "number of patients progression free at 6 months", "setting": "recurrent GBM [3]; of 36 patients evaluable for efficacy", "value": 14}, {"measurement": "olaparib in contralateral hemisphere", "setting": "[4]; 5 and 24 hours", "value": "undetectable"}, {"measurement": "olaparib in tumor specimens", "setting": "[4]; 5 hours", "value": "detectable in one tumor specimen"}, {"measurement": "concentration at 2 h", "setting": "[4]; CD1 nude, mouse, contralateral (non-tumor bearing) brain, oral, contralateral (non-tumor bearing) cerebral hemisphere olaparib concentration, median, 50 mg/kg oral gavage", "value": 84, "unit": "nM"}, {"measurement": "concentration at 2 h", "setting": "[4]; CD1 nude, mouse, contralateral (non-tumor bearing) brain, oral, contralateral (non-tumor bearing) cerebral hemisphere olaparib concentration, range, 50 mg/kg oral gavage", "value": "53 to 114", "unit": "nM"}, {"measurement": "concentration at 2 h", "setting": "[4]; CD1 nude, mouse, plasma, oral, plasma olaparib level, median, 50 mg/kg oral gavage", "value": 1590, "unit": "nM"}, {"measurement": "concentration at 5 h", "setting": "[4]; CD1 nude, mouse, plasma, oral, plasma olaparib level, median, 50 mg/kg oral gavage, 5 hours", "value": 230, "unit": "nM"}, {"measurement": "concentration at 2 h", "setting": "[4]; CD1 nude, mouse, plasma, oral, plasma olaparib level, range, 50 mg/kg oral gavage", "value": "773 to 2830", "unit": "nM"}, {"measurement": "concentration at 2 h", "setting": "[4]; CD1 nude, mouse, tumor, po, tumor olaparib concentration, median, intracranial G7 xenograft, 50 mg/kg oral gavage", "value": 347, "unit": "nM"}, {"measurement": "concentration at 2 h", "setting": "[4]; CD1 nude, mouse, tumor, po, tumor olaparib concentration, range, intracranial G7 xenograft, 50 mg/kg oral gavage, 4 mice", "value": "110 to 2780", "unit": "nM"}, {"measurement": "Papp A→B at 120 min, 1 µM", "setting": "[5]", "value": 1.66, "unit": "×10⁻⁶ cm/s"}, {"measurement": "Papp A→B at 120 min, 3 µM", "setting": "[5]", "value": 2.23, "unit": "×10⁻⁶ cm/s"}, {"measurement": "Papp A→B at 120 min, 10 µM", "setting": "[5]", "value": 2.46, "unit": "×10⁻⁶ cm/s"}, {"measurement": "Papp B→A at 120 min, 1 µM", "setting": "[5]", "value": 32, "unit": "×10⁻⁶ cm/s"}, {"measurement": "Papp B→A at 120 min, 3 µM", "setting": "[5]", "value": 29.7, "unit": "×10⁻⁶ cm/s"}, {"measurement": "Papp B→A at 120 min, 10 µM", "setting": "[5]", "value": 28.1, "unit": "×10⁻⁶ cm/s"}]}]}
